Experimental data published in US12319672B2, “Alpha-D-galactopyranoside derivatives” (Idorsia Pharmaceuticals Ltd, priority 2019, dated 2025).

Key:
human Gal-3 (hGal-3) = human Gal-3 (hGal-3) (Homo sapiens (Human), UniProt P17931); assay: Competitive binding assay: binding of biotinylated hGal-3 to microplate-adsorbed asialofetuin (ASF); conditions: Activity on hGal-3; mean values of several measurements
Method in brief: (§1)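 Spectrophotometric readout (streptavidin-peroxidase, ABTS) of biotinylated galectin retained on ASF-coated wells. Biotinylated hGal-1 or hGal-3, 300-1000 ng/mL, co-incubated with test compound 3 h at 4° C, then washed. Mean IC50 from repeat runs.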

human Gal-1 (hGal-1) = assay: Competitive binding assay: binding of biotinylated hGal-1 to microplate-adsorbed asialofetuin (ASF); conditions: Activities on hGal-1; mean values of several measurements
Sequence of human Gal-1 (hGal-1) (P09382 2-135 limits assumed): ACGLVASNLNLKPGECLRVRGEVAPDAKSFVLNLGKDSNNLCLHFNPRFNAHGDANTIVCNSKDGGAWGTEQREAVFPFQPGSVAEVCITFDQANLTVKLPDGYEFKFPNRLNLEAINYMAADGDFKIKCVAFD
Method in brief: as §1

Sequence of human Gal-3 (hGal-3) (P17931 whole entry): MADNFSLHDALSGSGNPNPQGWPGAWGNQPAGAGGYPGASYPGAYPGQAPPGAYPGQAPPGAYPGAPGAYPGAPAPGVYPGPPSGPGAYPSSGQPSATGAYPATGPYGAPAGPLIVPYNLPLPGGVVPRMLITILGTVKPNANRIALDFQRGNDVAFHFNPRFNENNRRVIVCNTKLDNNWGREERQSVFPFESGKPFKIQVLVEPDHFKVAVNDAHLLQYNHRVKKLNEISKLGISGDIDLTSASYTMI

SMILES	IC50 (human Gal-3 (hGal-3)) [nM]	IC50 (human Gal-1 (hGal-1)) [nM]
CO[C@@H]1[C@@H](n2cc(-c3cc(F)c(F)c(F)c3)nn2)[C@@H](O)[C@@H](CO)O[C@@H]1Cc1cc(C2CCN(C(=O)CC(C)C)CC2)on1 [Example 3.48, 1-(4-(3-(((2R,3R,4S,5R,6R)-5-hydroxy-6-(hydroxymethyl)-3-methoxy-4-(4-(3,4,5-trifluorophenyl)-1H-1,2,3-triazol-1-yl)tetrahydro-2H-pyran-2-yl)methyl)isoxazol-5-yl)piperidin-1-yl)-3-methylbutan-1-one]	41	470
CO[C@@H]1[C@@H](n2cc(-c3cc(F)c(F)c(F)c3)nn2)[C@@H](O)[C@@H](CO)O[C@@H]1Cc1cc(C2(C)CCCC2)no1 [Ex 1.286]	230	3080
CO[C@@H]1[C@@H](n2cc(-c3ccc(F)c(F)c3F)nn2)[C@@H](O)[C@@H](CO)O[C@@H]1Cc1cc(C2(C#N)CCCC2)no1 [Ex 1.291]	140	940
CO[C@@H]1[C@@H](n2cc(-c3ccc(F)c(F)c3F)nn2)[C@@H](O)[C@@H](CO)O[C@@H]1Cc1cc(C2(C)CCCC2)no1 [Ex 1.287]	69	590
CO[C@@H]1[C@@H](n2cc(-c3cc(F)c(F)c(F)c3)nn2)[C@@H](O)[C@@H](CO)O[C@@H]1C[C@H]1CN(C2CCN(C(=O)OC(C)(C)C)CC2)C(=O)O1 [Example 5.14, tert-butyl 4-((S)-5-(((2R,3R,4S,5R,6R)-5-hydroxy-6-(hydroxymethyl)-3-methoxy-4-(4-(3,4,5-trifluorophenyl)-1H-1,2,3-triazol-1-yl)tetrahydro-2H-pyran-2-yl)methyl)-2-oxooxazolidin-3-yl)piperidine-1-carboxylate]	340	6410
CO[C@@H]1[C@@H](n2cc(-c3cc(F)c(F)c(F)c3)nn2)[C@@H](O)[C@@H](CO)O[C@@H]1Cc1cc(C(C)(C)CNC(=O)OC(C)(C)C)no1 [Ex 1.315]	270	2210
O=c1cc(C2=NOC(C[C@H]3O[C@H](CO)[C@H](O)[C@H](n4cc(-c5cc(F)c(F)c(F)c5)nn4)[C@H]3O)C2)cc[nH]1 (mixture of isomers) [Example 2.03]	300	550
CO[C@@H]1[C@@H](n2cc(-c3cc(F)c(F)c(F)c3)nn2)[C@@H](O)[C@@H](CO)O[C@@H]1Cn1cc(C2CCN(S(=O)(=O)c3ccc(C)cc3)CC2)nn1 [Example 4.23, (2R,3R,4S,5R,6R)-2-(hydroxymethyl)-5-methoxy-6-((4-(1-tosylpiperidin-4-yl)-1H-1,2,3-triazol-1-yl)methyl)-4-(4-(3,4,5-trifluorophenyl)-1H-1,2,3-triazol-1-yl)tetrahydro-2H-pyran-3-ol]	38	1230
CO[C@@H]1[C@@H](n2cc(-c3cc(F)c(F)c(F)c3)nn2)[C@@H](O)[C@@H](CO)O[C@@H]1CC1CC(C2CCOCC2)=NO1 (some centres unmarked) [Ex 1.19]	530	5580
CO[C@@H]1[C@@H](n2cc(-c3cc(F)c(F)c(F)c3)nn2)[C@@H](O)[C@@H](CO)O[C@@H]1Cc1cc(C(C)(C)CO)no1 [Ex 1.207]	110	1160
CO[C@@H]1[C@@H](n2cc(-c3cc(F)c(F)c(F)c3)nn2)[C@@H](O)[C@@H](CO)O[C@@H]1Cc1cc(C2CCC(NC(=O)[C@@H](NC(=O)OC(C)(C)C)C(C)C)CC2)no1 (stereo partly drawn) [Example 2.29, tert-butyl ((S)-1-(((1R,4S)-4-(5-(((2R,3R,4S,5R,6R)-5-hydroxy-6-(hydroxymethyl)-3-methoxy-4-(4-(3,4,5-trifluorophenyl)-1H-1,2,3-triazol-1-yl)tetrahydro-2H-pyran-2-yl)methyl)isoxazol-3-yl)cyclohexyl)amino)-3-methyl-1-oxobutan-2-yl)carbamate]	17	2330
Cc1ccc(-c2cn([C@H]3[C@@H](O)[C@@H](CO)O[C@H](Cc4cc(C(C)(C)C)on4)[C@@H]3O)nn2)c(F)c1F [Ex 1.205]	41	9010
CO[C@@H]1[C@@H](n2cc(-c3ccc(C)c(F)c3F)nn2)[C@@H](O)[C@@H](CO)O[C@@H]1Cn1cc(C(C)(C)C)nn1 [Example 4.54, (2R,3R,4S,5R,6R)-6-((4-(tert-butyl)-1H-1,2,3-triazol-1-yl)methyl)-4-(4-(2,3-difluoro-4-methylphenyl)-1H-1,2,3-triazol-1-yl)-2-(hydroxymethyl)-5-methoxytetrahydro-2H-pyran-3-ol]	46	1500
CO[C@@H]1[C@@H](n2cc(-c3cc(F)c(F)c(F)c3)nn2)[C@@H](O)[C@@H](CO)O[C@@H]1CC1CC(C2CCN(C(C)=O)CC2)=NO1 (mixture of isomers) [Example 3.05, 1-(4-((RS)-5-(((2R,3R,4S,5R,6R)-5-hydroxy-6-(hydroxymethyl)-3-methoxy-4-(4-(3,4,5-trifluorophenyl)-1H-1,2,3-triazol-1-yl)tetrahydro-2H-pyran-2-yl)methyl)-4,5-dihydroisoxazol-3-yl)piperidin-1-yl)ethan-1-one]	290	1860
CO[C@@H]1[C@@H](n2cc(-c3cccc(F)c3)nn2)[C@@H](O)[C@@H](CO)O[C@@H]1Cc1cc(C2CCN(C(=O)OC(C)(C)C)CC2)on1 [Ex 1.228]	200	790
CO[C@@H]1[C@@H](n2cc(-c3cc(F)c(F)c(F)c3)nn2)[C@@H](O)[C@@H](CO)O[C@@H]1Cn1cc(C2=CCCC2)nn1 [Example 4.42, (2R,3R,4S,5R,6R)-6-((4-(cyclopent-1-en-1-yl)-1H-1,2,3-triazol-1-yl)methyl)-2-(hydroxymethyl)-5-methoxy-4-(4-(3,4,5-trifluorophenyl)-1H-1,2,3-triazol-1-yl)tetrahydro-2H-pyran-3-ol]	790	2620
CO[C@@H]1[C@@H](n2cc(-c3cc(F)c(F)c(F)c3)nn2)[C@@H](O)[C@@H](CO)O[C@@H]1Cc1cc(C2CCN(C(=O)C3CCCC3)CC2)on1 [Example 3.49, cyclopentyl(4-(3-(((2R,3R,4S,5R,6R)-5-hydroxy-6-(hydroxymethyl)-3-methoxy-4-(4-(3,4,5-trifluorophenyl)-1H-1,2,3-triazol-1-yl)tetrahydro-2H-pyran-2-yl)methyl)isoxazol-5-yl)piperidin-1-yl)methanone]	57	530
CO[C@@H]1[C@@H](n2cc(-c3ccc(F)c(F)c3F)nn2)[C@@H](O)[C@@H](CO)O[C@@H]1CC1CC(C2CCNCC2)=NO1 (some centres unmarked) [Ex 1.144]	180	740
CO[C@@H]1[C@@H](n2cc(-c3ccc(C)c(F)c3F)nn2)[C@@H](O)[C@@H](CO)O[C@@H]1Cc1cc(C2(C#N)CCCC2)on1 [Ex 1.278]	93	6700
CC(=O)N1CCC([C@H]2CC(C[C@H]3O[C@H](CO)[C@H](O)[C@H](n4cc(-c5cc(F)c(F)c(F)c5)nn4)[C@H]3O)=NO2)CC1 [Example 3.19, 1-(4-((R)-3-(((2R,3R,4R,5R,6R)-3,5-dihydroxy-6-(hydroxymethyl)-4-(4-(3,4,5-trifluorophenyl)-1H-1,2,3-triazol-1-yl)tetrahydro-2H-pyran-2-yl)methyl)-4,5-dihydroisoxazol-5-yl)piperidin-1-yl)ethan-1-one]	430	4720
CO[C@@H]1[C@@H](n2cc(-c3cc(F)c(F)c(F)c3)nn2)[C@@H](O)[C@@H](CO)O[C@@H]1Cc1cc(C2(C)CCOCC2)on1 [Ex 1.268]	110	2490
CN=S(=O)(C(C)C)N1CCC(c2cn(C[C@H]3O[C@H](CO)[C@H](O)[C@H](n4cc(-c5cc(F)c(F)c(F)c5)nn4)[C@H]3OC)nn2)CC1 (stereo partly drawn) [Example 4.25, (2R,3R,4S,5R,6R)-2-(hydroxymethyl)-5-methoxy-6-((4-(1-(N-methylpropan-2-ylsulfonimidoyl)piperidin-4-yl)-1H-1,2,3-triazol-1-yl)methyl)-4-(4-(3,4,5-trifluorophenyl)-1H-1,2,3-triazol-1-yl)tetrahydro-2H-pyran-3-ol]	120	1570
CC(C)(O)CC1CC(C[C@H]2O[C@H](CO)[C@H](O)[C@H](n3cc(-c4cc(F)c(F)c(F)c4)nn3)[C@H]2O)=NO1 (some centres unmarked) [Ex 1.42]	1060	3610
CO[C@@H]1[C@@H](n2cc(-c3cc(F)c(F)c(F)c3)nn2)[C@@H](O)[C@@H](CO)O[C@@H]1Cc1cc(C2CCN(C(=O)N(C)C)CC2)on1 [Example 3.69, 4-(3-(((2R,3R,4S,5R,6R)-5-hydroxy-6-(hydroxymethyl)-3-methoxy-4-(4-(3,4,5-trifluorophenyl)-1H-1,2,3-triazol-1-yl)tetrahydro-2H-pyran-2-yl)methyl)isoxazol-5-yl)-N,N-dimethylpiperidine-1-carboxamide]	170	2470
CO[C@@H]1[C@@H](n2cc(-c3ccc(Cl)c(F)c3F)nn2)[C@@H](O)[C@@H](CO)O[C@@H]1Cc1cc(C2(C)CCOCC2)no1 [Ex 1.285]	51	1100
CO[C@@H]1[C@@H](n2cc(-c3ccc(Br)c(F)c3F)nn2)[C@@H](O)[C@@H](CO)O[C@@H]1Cc1cc(C2CCN(C(C)=O)CC2)on1 [Ex 1.164]	38	1070
CO[C@@H]1[C@@H](n2cc(-c3cc(F)c(F)c(F)c3)nn2)[C@@H](O)[C@@H](CO)O[C@@H]1Cc1cc(C2CCN(CCC(C)(C)C)CC2)on1 [Example 3.42, (2R,3R,4S,5R,6R)-6-((5-(1-(3,3-dimethylbutyl)piperidin-4-yl)isoxazol-3-yl)methyl)-2-(hydroxymethyl)-5-methoxy-4-(4-(3,4,5-trifluorophenyl)-1H-1,2,3-triazol-1-yl)tetrahydro-2H-pyran-3-ol]	140	5900
CO[C@@H]1[C@@H](n2cc(-c3ccc(Cl)c(F)c3F)nn2)[C@@H](O)[C@@H](CO)O[C@@H]1Cc1cc(C2(O)CCC2)on1 [Ex 1.246]	73	1720
